In one experiment the target is KRas G12D (Homo sapiens, UniProt P01116, G12D). In words: biochemical. The settings on record: Binding to KRas (IC50 nM) G12D, TR-FRET displacement, KRas G12D. Background: TR-FRET usually uses a lanthanide donor and a delayed reading to cut background.
The next experiment relates to H358 cells. Nature of the experiment: Inhibition of KRas-mediated phosphorylation of ERK (Cisbio HTRF pERK), H358 cells. It is filed as cell-based. The following applies: Homo sapiens; for inhibition at 0.1 µM: NCI-H358, single point at 100 nM, 3 hrs compound incubation.
In a further experiment the test system is A549 cells. In words: Inhibition of KRas-mediated phosphorylation of ERK (Cisbio HTRF pERK), A549 cells. It is filed as cell-based. The settings on record: Homo sapiens; for inhibition at 0.1 µM: single point at 100 nM, 3 hrs compound incubation.
Another experiment addresses KRas G12R (Homo sapiens, UniProt P01116, G12R). In words: biochemical. The following applies: Binding to KRas (IC50 nM) G12R, TR-FRET displacement, KRas G12R.
The target in the next experiment is KRas G12V (Homo sapiens, UniProt P01116, G12V). In words: biochemical. The settings on record: Binding to KRas (IC50 nM) G12V, TR-FRET displacement, KRas G12V.
The test system of the next experiment is ASPC1 cells. Nature of the experiment: Inhibition of KRas-mediated phosphorylation of ERK (Cisbio HTRF pERK), ASPC1 cells. It is filed as cell-based. The settings on record: Homo sapiens, AsPC-1 cells; for inhibition at 0.1 µM: ASPC1, single point at 100 nM, 3 hrs compound incubation; for IC50: ASPC1, 3 h, 3 hr compound incubation.
Another experiment concerns H727 cells. Nature of the experiment: Inhibition of KRas-mediated phosphorylation of ERK (Cisbio HTRF pERK), H727 cells. It is filed as cell-based. The following applies: Homo sapiens; for inhibition at 0.1 µM: NCI-H727, single point at 100 nM, 3 hrs compound incubation; for IC50: NCI-H727, 3 h, 3 hr compound incubation.

SMILES strings stand for the structures.

Chain of KRas G12R (P01116 1-169 isoform P01116-2 G12R): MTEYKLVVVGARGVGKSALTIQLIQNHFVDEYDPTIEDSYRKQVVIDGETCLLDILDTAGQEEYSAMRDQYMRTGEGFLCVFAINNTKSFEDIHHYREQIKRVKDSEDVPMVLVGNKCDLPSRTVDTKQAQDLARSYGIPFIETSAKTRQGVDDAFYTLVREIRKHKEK
Chain of KRas G12D (P01116 1-169 isoform P01116-2 G12D): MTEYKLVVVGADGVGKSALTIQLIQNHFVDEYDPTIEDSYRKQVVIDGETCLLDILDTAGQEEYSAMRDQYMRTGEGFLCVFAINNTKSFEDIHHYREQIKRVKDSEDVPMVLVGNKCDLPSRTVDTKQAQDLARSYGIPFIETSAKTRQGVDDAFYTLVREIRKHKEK
Chain of KRas G12V (P01116 1-169 isoform P01116-2 G12V): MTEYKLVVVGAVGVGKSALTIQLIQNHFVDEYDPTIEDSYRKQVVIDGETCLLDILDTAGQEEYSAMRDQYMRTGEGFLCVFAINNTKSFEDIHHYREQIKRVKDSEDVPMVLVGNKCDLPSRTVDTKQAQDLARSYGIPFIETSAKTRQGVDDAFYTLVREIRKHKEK

As to `CCc1c(F)ccc2cc(O)cc(N3CCc4c(nc(OC[C@@]56CCCN5C[C@H](F)C6)nc4N4CCCc5c(cnn5C5CC5)C4)C3)c12` [Example 238, 4-(4-(1-cyclopropyl-7,8-dihydropyrazolo[4,3-c]azepin-5(1H,4H,6H)-yl)-2-(((2R,7aS)-2-fluorohexahydro-1H-pyrrolizin-7a-yl)methoxy)-5,6-dihydropyrido[3,4-d]pyrimidin-7(8H)-yl)-5-ethyl-6-fluoronaphthalen-2-ol], the IC50 – broadly, the concentration that inhibits the measured activity by half – is 1390 nM on KRas G12D, 4610 nM at KRas G12R and 1140 nM on KRas G12V. Further, the inhibition (as a rule, the relative decrease from the control value, in per cent) at 0.1 µM in the experiment on H358 cells was -17%; in the experiment with A549 cells, -3%; in the experiment with ASPC1 cells it was 9%; with H727 cells, -2%.
As for `CCc1c(F)ccc2cc(O)cc(N3CCc4c(nc(OC[C@@]56CCCN5C[C@H](F)C6)nc4N4CCCc5c(cnn5C5CCC5)C4)C3)c12` [Example 240, 4-(4-(1-cyclobutyl-7,8-dihydropyrazolo[4,3-c]azepin-5(1H,4H,6H)-yl)-2-(((2R,7aS)-2-fluorohexahydro-1H-pyrrolizin-7a-yl)methoxy)-5,6-dihydropyrido[3,4-d]pyrimidin-7(8H)-yl)-5-ethyl-6-fluoronaphthalen-2-ol], the results for the IC50 at KRas G12D, on KRas G12R and on KRas G12V were 9840 nM, 7480 nM and 2380 nM, respectively. Besides, the inhibition at 0.1 µM was -1% in the experiment on H358 cells, -1% in the experiment on A549 cells, -5% in the experiment on ASPC1 cells and -18% in the experiment with H727 cells.
Regarding `CCc1c(F)ccc2cc(O)cc(N3CCc4c(nc(OC[C@@]56CCCN5C[C@H](F)C6)nc4N4CCCc5nn(C6CCC6)cc5C4)C3)c12` [Example 241, 4-(4-(2-cyclobutyl-7,8-dihydropyrazolo[4,3-c]azepin-5(2H,4H,6H)-yl)-2-(((2R,7aS)-2-fluorohexahydro-1H-pyrrolizin-7a-yl)methoxy)-5,6-dihydropyrido[3,4-d]pyrimidin-7(8H)-yl)-5-ethyl-6-fluoronaphthalen-2-ol], the IC50 on KRas G12D was 173 nM; on KRas G12R, 48 nM; at KRas G12V, 155 nM; in the experiment with ASPC1 cells (Cisbio pERK HTRF), 7110 nM; with H727 cells (Cisbio pERK HTRF) it was 5020 nM. The inhibition at 0.1 µM in the experiment on H358 cells is -15%; in the experiment on A549 cells it was 5%; with ASPC1 cells it was 5%; in the experiment with H727 cells, -4%.
With `CCc1c(F)ccc2cc(O)cc(N3CCc4c(nc(OC[C@@]56CCCN5C[C@H](F)C6)nc4N4CCCc5nn(C6COC6)cc5C4)C3)c12` [Example 242, 5-ethyl-6-fluoro-4-(2-(((2R,7aS)-2-fluorohexahydro-1H-pyrrolizin-7a-yl)methoxy)-4-(2-(oxetan-3-yl)-7,8-dihydropyrazolo[4,3-c]azepin-5(2H,4H,6H)-yl)-5,6-dihydropyrido[3,4-d]pyrimidin-7(8H)-yl)naphthalen-2-ol], the IC50 at KRas G12D came to 57 nM; on KRas G12R, 49 nM; on KRas G12V it was 85 nM; in the experiment on ASPC1 cells (Cisbio pERK HTRF), 3480 nM; with H727 cells (Cisbio pERK HTRF), 5630 nM. For the same compound, the inhibition at 0.1 µM with H358 cells is 3%; in the experiment on A549 cells it was 6%; in the experiment on ASPC1 cells it was -9%; with H727 cells, 2%.
Turning to `CCc1c(F)ccc2cc(O)cc(N3CCc4c(nc(OC[C@@]56CCCN5C[C@H](F)C6)nc4N4CCCn5nc(C(N(C)C)C(F)(F)F)cc5C4)C3)c12` (stereo partly drawn) [Example 280, 4-(4-(2-(1-(dimethylamino)-2,2,2-trifluoroethyl)-7,8-dihydro-4H-pyrazolo[1,5-a][1,4]diazepin-5(6H)-yl)-2-(((2R,7aS)-2-fluorotetrahydro-1H-pyrrolizin-7a(5H)-yl)methoxy)-5,8-dihydropyrido[3,4-d]pyrimidin-7(6H)-yl)-5-ethyl-6-fluoronaphthalen-2-ol], the half-maximal inhibitory concentration (IC50) was 195 nM at KRas G12D; 230 nM at KRas G12R; 264 nM on KRas G12V; 7000 nM with ASPC1 cells (Cisbio pERK HTRF); more than 10000 nM in the experiment with H727 cells (Cisbio pERK HTRF). For the same compound, the inhibition at 0.1 µM was 14% with H358 cells and -20% in the experiment with A549 cells.
As to `CCc1c(F)ccc2cc(O)cc(N3CCc4c(nc(OC[C@@]56CCCN5C[C@H](F)C6)nc4N4CCCn5nc(N(C(C)=O)C(C)C)cc5C4)C3)c12` [Example 287, N-(5-(7-(8-ethyl-7-fluoro-3-hydroxynaphthalen-1-yl)-2-(((2R,7aS)-2-fluorohexahydro-1H-pyrrolizin-7a-yl)methoxy)-5,6,7,8-tetrahydropyrido[3,4-d]pyrimidin-4-yl)-5,6,7,8-tetrahydro-4H-pyrazolo[1,5-a][1,4]diazepin-2-yl)-N-i sopropyvlacetamide], the half-maximal inhibitory concentration (IC50) on KRas G12D is 505 nM; on KRas G12R it was 441 nM; on KRas G12V, 717 nM; with ASPC1 cells (Cisbio pERK HTRF), 6450 nM; with H727 cells (Cisbio pERK HTRF) it was more than 10000 nM. In addition, the inhibition at 0.1 µM is -20% in the experiment on H358 cells and -15% in the experiment with A549 cells.
In the case of `CCc1c(F)ccc2cc(O)cc(N3CCc4c(nc(OC[C@@]56CCCN5C[C@H](F)C6)nc4N4CCCn5nc(CS(=O)(=O)NC)cc5C4)C3)c12` [Example 495, 1-(5-(7-(8-ethyl-7-fluoro-3-hydroxynaphthalen-1-yl)-2-(((2R,7aS)-2-fluorohexahydro-1H-pyrrolizin-7a-yl)methoxy)-5,6,7,8-tetrahydropyrido[3,4-d]pyrimidin-4-yl)-5,6,7,8-tetrahydro-4H-pyrazolo[1,5-a][1,4]diazepin-2-yl)-N-methylmethanesulfonamide], the IC50 turned out to be 3 nM on KRas G12D; 11 nM at KRas G12R; 12 nM at KRas G12V; 1240 nM with ASPC1 cells (Cisbio pERK HTRF); 2900 nM in the experiment on H727 cells (Cisbio pERK HTRF). Moreover, the inhibition at 0.1 µM is 1% in the experiment on H358 cells, 26% in the experiment with A549 cells, -1% in the experiment on ASPC1 cells and 3% in the experiment on H727 cells.
Consider `CCCCCCCCN(C)C(=O)c1cc2n(n1)CCCN(c1nc(OC[C@@]34CCCN3C[C@H](F)C4)nc3c1CCN(c1cc(O)cc4ccc(F)c(CC)c14)C3)C2` [Example 498, 5-(7-(8-ethyl-7-fluoro-3-hydroxynaphthalen-1-yl)-2-(((2R,7aS)-2-fluorohexahydro-1H-pyrrolizin-7a-yl)methoxy)-5,6,7,8-tetrahydropyrido[3,4-d]pyrimidin-4-yl)-N-methyl-N-octyl-5,6,7,8-tetrahydro-4H-pyrazolo[1,5-a][1,4]diazepine-2-carboxamide], for which the IC50 at KRas G12D came out at 10 nM; on KRas G12R, 22 nM; at KRas G12V, 9 nM; with ASPC1 cells (Cisbio pERK HTRF), 258 nM; in the experiment with H727 cells (Cisbio pERK HTRF) it was 410 nM. The inhibition at 0.1 µM in the experiment with H358 cells is 5%; in the experiment on A549 cells it was 25%; in the experiment with ASPC1 cells it was -13%; with H727 cells, 12%.
On to `CCc1c(F)ccc2cc(O)cc(N3CCc4c(nc(OC[C@@]56CCCN5C/C(=C\F)C6)nc4N4CCC[C@]5(C4)NC(=O)NC5=O)C3)c12` [Example 715, (R)-7-(7-(8-ethyl-7-fluoro-3-hydroxynaphthalen-1-yl)-2-(((S,Z)-2-(fluoromethylene)tetrahydro-1H-pyrrolizin-7a(5H)-yl)methoxy)-5,6,7,8-tetrahydropyrido[3,4-d]pyrimidin-4-yl)-1,3,7-triazaspiro[4.5]decane-2,4-dione], for which the IC50 came to 1 nM with H358 cells (NCI-H358, 3 h, 3 hr compound incubation); 1 nM in the experiment with A549 cells (A549, 3 h, 3 hr compound incubation); 2 nM in the experiment with ASPC1 cells; 4 nM with H727 cells.

Values taken from patent US20250368649A1, “TETRAHYDROPYRIDOPYRIMIDINE PAN-KRAS INHIBITORS” (Mirati Therapeutics, Inc., priority 2022, published 2025).
